From ChEMBL document CHEMBL4814050, “Identification of gallic acid as a active ingredient of Syzygium aromaticum against tacrolimus-induced damage in renal epithelial LLC-PK1 cells and rat kidney” (Bioorg Med Chem Lett, 2021)
Calls of active or inactive are those of the source. No cut-off for these calls is given here.

Columns and labels:
LLC-PK1 = experiment: Cytoprotective activity against pig LLC-PK1 cells assessed as reduction in FK506-induced cytotoxicity incubated for 2 hrs followed by FK506 stimulation and measured after 24 hrs by MTT assay; format: functional, cell-based; conditions: Sus scrofa, dose 12.5-100 µM, time 26.0 hrs
[1] = Antioxidant activity assessed as reduction in FK506-induced ROS production by […] assay; format: functional; conditions: dose 0.1-100 µM
Rattus norvegicus = species on record: Rattus norvegicus; experiment: Nephroprotective activity in Sprague-Dawley rat assessed as reduction in FK506-induced kidney dysfunction by measuring decrease in serum creatinine level measured after 14 days; format: functional, organism-based; conditions: time 14.0 day

| SMILES | Activity (LLC-PK1) | Activity [1] | Activity (Rattus norvegicus) |
| --- | --- | --- | --- |
| O=C(O[C@@H]1Cc2c(O)cc(O)cc2O[C@@H]1c1cc(O)c(O)c(O)c1)c1cc(O)c(O)c(O)c1 | Dose-Dependent Effect | Dose-Dependent Effect |  |
| O=C1O[C@H]([C@@H](O)CO)C(O)=C1O |  | Active |  |
| O=C(O)c1cc(O)c(O)c(O)c1 | Dose-Dependent Effect | Dose-Dependent Effect | Active |
